Test results: US20200148635A1 (priority 2017, published 2020)

How the values were obtained:
[1] = tested on: Alternaria solani; assay: In vitro test Alternaria solani (early blight of tomato/potato), radial growth on Potato Dextrose Agar; type: cell-based; settings: 168 h, agar plate, 25° C., seven days, read-out: control compared to the untreated check
Experimental: (§1) Alternaria solani (early blight of tomato/potato): Compounds were dissolved in 0.3% DMSO and then added to Potato Dextrose Agar medium just prior to dispensing it into Petri dishes. 5 mL medium with compound in the desired concentration was dispensed into 60 mm sterile Petri-plates. After solidification each plate was seeded with 5 mm size mycelial disc taken form periphery of actively growing virulent culture plate. Plates were incubated in growth chambers at 25° C. temperature and 60% relative humidity for seven days and radial growth was measured.

[2] = tested on: Pyricularia oryzae; assay: microbe, parasite or virus in culture; type: cell-based; settings: 168 h, read-out: control compared to the untreated check
[3] = tested on: Phakopsora pachyrhizi; assay: Greenhouse Phakopsora pachyrhizi test in soybean, preventive; type: in vivo; settings: preventive spray on soybean plants, inoculated one day after treatment with Phakopsora pachyrhizi, read-out: control compared to the untreated check
Experimental: Phakopsora pachyrhizi Test in Soybean
Compounds were dissolved in 2% DMSO/Acetone and then mixed with water to the calibrated spray volume of 50 mL and poured into the spray bottles for further applications.
To test the preventive activity of compounds, healthy young soybean plants raised in the greenhouse were sprayed with active compound preparation at the stated application rates inside the spray cabinets using hallowcone nozzles. One day after treatment, the plants were inoculated with spore suspension containing 2.1×10^6 Phakopsora pachyrhizi inoculum. The inoculated plants were then kept in greenhouse chamber at 25° C. temperature and 90% relative humidity for disease expression.
A visual assessment of compound's performance was carried out by rating the disease severity (0-100% scale) on treated plants on 3, 7, 10 and 15 days after application. Efficacy (% control) of the compounds was calculated by comparing the disease rating in the treatment with the one of the untreated control. The sprayed plants were also assessed for compound's plant compatibility by recording symptoms like necrosis, chlorosis and stunting.

[4] = tested on: Septoria lycopersici; assay: In vitro test Septoria lycopersici (leaf spot of tomato), radial growth on Potato Dextrose Agar; type: cell-based; settings: 168 h, agar plate, 25° C., seven days, read-out: control compared to the untreated check
Experimental: Septoria lycopersici (Leaf Spot of Tomato):
as §1, with “Compounds” for “Alternaria solani (early blight of tomato/potato): Compounds”, “70%” for “60%”

[5] = tested on: Rhizoctonia solani; assay: In vitro test Rhizoctonia solani (rice sheath blight/potato black scurf), radial growth on Potato Dextrose Agar; type: cell-based; settings: 168 h, agar plate, 25° C., seven days, read-out: control compared to the untreated check
Experimental: Rhizoctonia solani (Rice Sheath Blight/Potato Black Scurf):
as §1, with “Compounds” for “Alternaria solani (early blight of tomato/potato): Compounds”

| Compound | inhibition of growth at 300 ppm [1] [%] | inhibition of growth at 300 ppm [2] [%] | other results |
| --- | --- | --- | --- |
| CCN=S(C)(=O)c1ccc(Cc2cc(C)c(N=CN(C)CC)cc2C)cc1 (stereo not shown) [Compound 130] | > 70 | – | – |
| CCN(C)C=Nc1cc(Br)c(N=S(=O)(CCC(C)C)c2ccccc2)nc1C (stereo not shown) [Compound 57] | – | > 70 | – |
| CCN(C)C=Nc1cc(C)c(S(=O)(CC(C)C)=NCc2cccc(Cl)c2)cc1Cl (stereo not shown) [Compound 101] | > 70 | – | pest or weed control at 500 ppm [3]: > 70% |
| CCN(C)C=Nc1cc(C)c(S(C)(=O)=NC(=O)c2ccc(F)c(Cl)c2)cc1Cl (stereo not shown) [Compound 29] | – | > 70 | – |
| CCN(C)C=Nc1cc(C)c(S(=O)(CC)=Nc2cccc(OC(F)(F)F)c2)cc1Cl (stereo not shown) [Compound 61] | > 70 | – | inhibition of growth at 300 ppm [4]: > 70%; pest or weed control at 500 ppm [3]: > 70% |
| CCN(C)C=Nc1cc(C)c(S(C)(=O)=NC(=O)c2cccc(C(F)(F)F)c2)cc1Cl (stereo not shown) [Compound 30] | – | > 70 | – |
| CCN(C)C=Nc1cc(C)c(S(=O)(CC(C)C)=Nc2ccc(OC)cc2)cc1Cl (stereo not shown) [Compound 111] | – | > 70 | – |
| CCN(C)C=Nc1cc(C)c(Cc2ccccc2S(C)(=N)=O)cc1C (stereo not shown) [Compound 136] | – | > 70 | – |
| CCN(C)C=Nc1cc(C)c(Oc2cccc(S(=N)(=O)C(F)(F)F)c2)cc1C (stereo not shown) [Compound 148] | – | > 70 | – |
| CCN(C)C=Nc1cc(C)c(Oc2ccc(S(C)(=O)=NC#N)cc2)cc1Cl (stereo not shown) [Compound 129] | – | – | pest or weed control at 500 ppm [3]: > 70% |
| CCN(C)C=Nc1cc(C)c(S(=O)(CC)=Nc2cccc(C(F)(F)F)c2)cc1Cl (stereo not shown) [Compound 60] | – | > 70 | pest or weed control at 500 ppm [3]: > 70% |
| CCN(C)C=Nc1cc(C)c(N=S(=O)(CCC(C)C)c2ccccc2)cc1C (stereo not shown) [Compound 55] | – | > 70 | – |
| CCN(C)C=Nc1cc(C)c(S(C)(=O)=NC(=O)c2cc(C(F)(F)F)cc(C(F)(F)F)c2)cc1Cl (stereo not shown) [Compound 31] | – | > 70 | pest or weed control at 500 ppm [3]: > 70% |
| CCN(C)C=Nc1cc(C)c(S(=O)(CC(C)C)=NCc2ccc(F)c(Cl)c2)cc1Cl (stereo not shown) [Compound 100] | – | > 70 | – |
| CCN(C)C=Nc1cc(C)c(S(=O)(CC)=Nc2ccccc2)cc1Cl (stereo not shown) [Compound 64] | > 70 | – | – |
| CCN(C)C=Nc1cc(C)c(S(C)(=O)=NC(=O)c2cccc(Cl)c2)cc1Cl (stereo not shown) [Compound 40] | – | > 70 | – |
| CCN(C)C=Nc1cc(C)c(S(C)(=O)=Nc2ccc(Cl)c(C(F)(F)F)c2)cc1Cl (stereo not shown) [Compound 41] | – | > 70 | – |
| CCN(C)C=Nc1cc(C)c(Oc2ccc(S(C)(=O)=NC(F)(F)F)cc2)cc1Cl (stereo not shown) [Compound 134] | > 70 | – | inhibition of growth at 300 ppm [5]: > 70%; inhibition of growth at 300 ppm [4]: > 70% |
| CCN(C)C=Nc1cc(Br)c(Oc2cccc(S(C)(=O)=NCC3CCC3)c2)nc1C (stereo not shown) [Compound 69] | – | > 70 | – |
| CCN(C)C=Nc1cc(C)c(S(=O)(CC(C)C)=Nc2ccc(N(C)C)cc2)cc1Cl (stereo not shown) [Compound 110] | – | > 70 | – |
| CCN(C)C=Nc1cc(C)c(Oc2cccc(S(=O)(=NC)C(F)(F)F)c2)cc1C (stereo not shown) [Compound 151] | – | > 70 | – |
| CCN(C)C=Nc1cc(C)c(Oc2cccc(S(C)(=O)=NCC#N)c2)cc1C (stereo not shown) [Compound 125] | > 70 | > 70 | – |
| CCN(C)C=Nc1cc(C)c(S(=O)(CC(C)C)=NCc2cccc(C(F)(F)F)c2)cc1Cl (stereo not shown) [Compound 102] | > 70 | > 70 | – |
| CCN(C)C=Nc1cc(C)c(S(C)(=O)=Nc2cccc(S(F)(F)(F)(F)F)c2)cc1Cl (stereo not shown) [Compound 45] | > 70 | – | inhibition of growth at 300 ppm [4]: > 70% |
| CCN(C)C=Nc1cc(C)c(S(=O)(CC)=NC(=O)c2nn(C)cc2C(F)F)cc1Cl (stereo not shown) [Compound 59] | – | > 70 | – |
| CCN(C)C=Nc1cc(C)c(S(=O)(CC(C)C)=Nc2ccc(OC)c(OC)c2)cc1Cl (stereo not shown) [Compound 124] | > 70 | – | inhibition of growth at 300 ppm [5]: > 70%; inhibition of growth at 300 ppm [4]: > 70% |
| CCN(C)C=Nc1cc(C)c(Cc2ccc(S(C)(=O)=NCC3CC3)cc2)cc1C (stereo not shown) [Compound 131] | > 70 | – | – |

| Compound | inhibition of growth at 300 ppm [1] [%] | inhibition of growth at 300 ppm [2] [%] | other results |
| --- | --- | --- | --- |
| CCN(C)C=Nc1cc(C)c(S(=O)(CC(C)C)=NC(=O)c2ccc(F)c(Cl)c2)cc1Cl (stereo not shown) [Compound 72] | – | > 70 | – |
| CCN(C)C=Nc1cc(C)c(S(C)(=O)=NC(=O)c2ccccc2)cc1Cl (stereo not shown) [Compound 28] | – | > 70 | – |
| CCN(C)C=Nc1cc(Br)c(N=S(C)(=O)c2ccc(Br)cc2)nc1C (stereo not shown) [Compound 56] | – | > 70 | – |
| CCN=S(=O)(CC1CC1)c1cccc(Oc2cc(Cl)c(N=CN(C)CC)cc2C)c1 (stereo not shown) [Compound 20] | – | – | inhibition of growth at 300 ppm [4]: > 70% |
| CCN(C)C=Nc1cc(C)c(S(=O)(CC)=NC(=O)c2ccccc2)cc1Cl (stereo not shown) [Compound 58] | – | > 70 | – |
| CCN(C)C=Nc1cc(C)c(S(=O)(CC)=NC(=O)c2cccc(F)c2)cc1Cl (stereo not shown) [Compound 52] | > 70 | – | – |
| CCN(C)C=Nc1cc(C)c(S(C)(=O)=NCc2cccc(OC(F)(F)F)c2)cc1Cl (stereo not shown) [Compound 92] | > 70 | – | inhibition of growth at 300 ppm [5]: > 70%; inhibition of growth at 300 ppm [4]: > 70% |
| CCN(C)C=Nc1cc(C)c(Oc2cccc(S(C)(=O)=NCC3CC3)c2)cc1Cl (stereo not shown) [Compound 18] | – | > 70 | – |
| CCN(C)C=Nc1cc(C)c(Oc2cccc(S(C)(=O)=NCC3CCC3)c2)cc1C (stereo not shown) [Compound 71] | – | > 70 | – |
| CCN(C)C=Nc1cc(Br)c(N=S(=O)(c2cccc(OC)c2)C(C)C)nc1C (stereo not shown) [Compound 78] | > 70 | – | – |
| CCN(C)C=Nc1cc(C)c(S(=O)(CC)=NC(=O)c2cccc(OC(F)(F)F)c2)cc1Cl (stereo not shown) [Compound 53] | > 70 | > 70 | – |
| CCN(C)C=Nc1cc(C)c(S(=O)(CC)=NC(=O)c2cccc(C(F)(F)F)c2)cc1Cl (stereo not shown) [Compound 51] | > 70 | > 70 | – |
| CCN(C)C=Nc1cc(C)c(S(C)(=O)=Nc2ccccc2)cc1Cl (stereo not shown) [Compound 17] | > 70 | – | inhibition of growth at 300 ppm [5]: > 70%; inhibition of growth at 300 ppm [4]: > 70% |
| CCN(C)C=Nc1cc(Br)c(N=S(C)(=O)c2ccccc2)nc1C (stereo not shown) [Compound 47] | – | > 70 | pest or weed control at 500 ppm [3]: > 70% |
| CCN=S(C)(=O)c1cccc(Oc2cc(C)c(N=CN(C)CC)cc2C)c1 (stereo not shown) [Compound 54] | – | > 70 | – |
| CCN(C)C=Nc1cc(C)c(Oc2ccccc2S(=O)(=NCC2CC2)C(F)(F)F)cc1Cl (stereo not shown) [Compound 152] | – | > 70 | pest or weed control at 500 ppm [3]: > 70% |
| CCN(C)C=Nc1cc(C)c(S(C)(=O)=Nc2cccc(OC)c2)cc1Cl (stereo not shown) [Compound 24] | – | > 70 | – |
| CCN(C)C=Nc1cc(C)c(S(=O)(CC)=Nc2cc(F)c(F)c(F)c2)cc1Cl (stereo not shown) [Compound 62] | > 70 | > 70 | – |
| CCN(C)C=Nc1cc(C)c(Cc2ccccc2S(C)(=O)=NC)cc1C (stereo not shown) [Compound 137] | – | > 70 | – |
| CCN(C)C=Nc1cc(C)c(S(C)(=O)=Nc2cccc(C(F)(F)F)c2)cc1Cl (stereo not shown) [Compound 36] | – | > 70 | – |
| CCN(C)C=Nc1cc(C)c(Cc2ccccc2S(C)(=O)=NCC2CC2)cc1C (stereo not shown) [Compound 138] | – | > 70 | – |
| CCN(C)C=Nc1cc(C)c(S(C)(=O)=NC(=O)c2ccc(F)c(F)c2)cc1Cl (stereo not shown) [Compound 34] | – | > 70 | pest or weed control at 500 ppm [3]: > 70% |
| CCN(C)C=Nc1cc(C)c(S(=O)(CC(C)C)=Nc2ccc(N3CCOCC3)cc2)cc1Cl (stereo not shown) [Compound 113] | > 70 | – | inhibition of growth at 300 ppm [5]: > 70%; inhibition of growth at 300 ppm [4]: > 70% |
| CCN(C)C=Nc1cc(C)c(N=S(=O)(c2cccc(OC)c2)C(C)C)cc1C (stereo not shown) [Compound 75] | – | > 70 | pest or weed control at 500 ppm [3]: > 70% |
| CCN(C)C=Nc1cc(C)c(Nc2ccc(S(C)(=O)=NCC3CC3)cc2)cc1C (stereo not shown) [Compound 139] | > 70 | – | inhibition of growth at 300 ppm [4]: > 70% |
| CCN(C)C=Nc1cc(C)c(N=S(=O)(c2ccccc2)C(C)C)cc1C (stereo not shown) [Compound 66] | > 70 | – | inhibition of growth at 300 ppm [5]: > 70% |
| CCN(C)C=Nc1cc(Br)c(N=S(=O)(CC2CC2)c2cccc(F)c2)nc1C (stereo not shown) [Compound 106] | – | > 70 | pest or weed control at 500 ppm [3]: > 70% |
